≈ marks a conversion by molar mass, not a printed value. Like-named read-outs stand apart in the source and are kept apart here.
What was measured:
[1] = system: E. coli 25922; assay: MIC assay, liquid medium microdilution (planktonic growth); assay type: cell-based, Escherichia coli
Protocol: (§1) The antibacterial assays were performed on Gram-negative (Escherichia coli ATCC 25922, E. coli 5, Pseudomonas aeruginosa ATCC 27853, P. aeruginosa ATCC 9027) and Gram-positive (Staphylococcus aureus ATCC 25923, S. aureus ATCC 6538, MRSA (Meticillin-resistant S. aureus) 388, ATCC, American Type Culture Collection) bacterial strains. Microbial suspensions (1.5 × 10^8 CFU/mL; colony forming units (CFU)) corresponding to 0.5 McFarland density obtained from 15 to 18-h bacterial cultures developed on solid media were used. The antimicrobial activity was tested on Mueller–Hinton agar medium.
(§2) The quantitative assay of the antimicrobial activity was performed by the liquid medium microdilution method, in 96-well multi-well plates, to establish the minimal inhibitory concentration (MIC). For this purpose, serial two-fold dilutions of the compounds ranging between 1.000 and 1.95 μg/mL were performed in a 200 μL volume of broth and each well was seeded with 50 μL microbial inoculums. Sterility control (wells containing only culture medium) and culture controls (wells containing culture medium seeded with the microbial inoculum) were used. The influence of the DMSO solvent was also quantified in a series of wells containing DMSO, diluted accordingly with the dilution scheme used for the complexes. The plates were incubated for 24 h at 37 °C, and MIC values were considered as the lowest concentration of the tested compound that inhibited the visible growth of the microbial overnight cultures.

[2] = system: E. coli 5 ESBL; assay: as above; assay type: cell-based, Escherichia coli
Protocol: as §1, §2

[3] = system: P. aeruginosa 27853; assay: as above; assay type: cell-based, Pseudomonas aeruginosa
Protocol: as §1, §2

[4] = system: P. aeruginosa 9027; assay: as above; assay type: cell-based, Pseudomonas aeruginosa
Protocol: as §1, §2

[5] = system: MRSA; assay: as above; assay type: cell-based, Staphylococcus aureus
Protocol: as §1, §2

[6] = system: S. aureus 25923; assay: as above; assay type: cell-based, Staphylococcus aureus
Protocol: as §1, §2

[7] = system: S. aureus 6538; assay: as above; assay type: cell-based, Staphylococcus aureus
Protocol: as §1, §2

[8] = system: E. coli 25922; assay: MBEC assay, micro-titer method (biofilm); assay type: cell-based, Escherichia coli
Protocol: as §1
(§3) The assessment of the complexes’ influence on the microbial ability to colonize an inert substratum with the establishment of the minimal biofilm eradication concentration (MBEC) was performed by the micro-titer method, following previously described protocols. The absorbance at 490 nm was measured with an Apollo LB 911ELISA (Berthold Technologies GmbH & Co. KG, Waltham, MA, USA) reader. All experiments were performed in triplicates.

[9] = system: E. coli 5 ESBL; assay: MBEC assay, micro-titer method (biofilm); assay type: cell-based, Escherichia coli
Protocol: as §1, §3

[10] = system: P. aeruginosa 27853; assay: MBEC assay, micro-titer method (biofilm); assay type: cell-based, Pseudomonas aeruginosa
Protocol: as §1, §3

[11] = system: P. aeruginosa 9027; assay: MBEC assay, micro-titer method (biofilm); assay type: cell-based, Pseudomonas aeruginosa
Protocol: as §1, §3

[12] = system: MRSA; assay: MBEC assay, micro-titer method (biofilm); assay type: cell-based, Staphylococcus aureus
Protocol: as §1, §3

[13] = system: S. aureus 25923; assay: MBEC assay, micro-titer method (biofilm); assay type: cell-based, Staphylococcus aureus
Protocol: as §1, §3

[14] = system: S. aureus 6538; assay: MBEC assay, micro-titer method (biofilm); assay type: cell-based, Staphylococcus aureus
Protocol: as §1, §3

[15] = system: B16 (melanoma) tumor cells; assay: MTT cell viability assay; assay type: cell-based, Mouse; settings: any tested concentration (0–25 μg/mL), 24 and 48 h
Protocol: (§4) The cytotoxicity of ligand and copper(II) complexes was tested on normal BJ cell as well as on B16 (melanoma) tumor cells, which were grown for 48 h in culture medium containing the tested complexes in 0–25 μg/mL concentration range.
(§5) Human fibroblast cells (BJ-ATCC CRL-2522, Manassas, VA, USA) were grown in minimal essential medium (MEM) supplemented with 2 mM L-Glutamine, 10% fetal calf serum (FCS), 100 units/mL of penicillin and 100 µg/mL of streptomycin at 37 °C in a humidified incubator under an atmosphere containing 5% CO2. Mouse melanoma cells (B16-ATCC CRL-6475, Manassas, VA, USA) were grown in DMEM (Dulbecco’s Modified Eagle Medium) supplemented with similar reagents as MEM. All cell cultivation media and reagents were purchased from Biochrom AG (Berlin, Germany) and Sigma-Aldrich (Darmstadt, Germany).
(§6) Cell viability was evaluated using 3-(4,5-dimethylthiazol-2-yl)-2,5-diphenyltetrazolium bromide (MTT) assay, as described previously. First, the cells were seeded in 96-well plates (20,000 cells/well) and cultured for 24 h in medium. After overnight incubation, the medium was changed and the investigated sample in concentration varying from […] was added for 24 h. The negative control was represented by cells cultivated in medium without the investigated compounds. Following incubation, the medium was changed and the MTT solution was added to each well to a final concentration of 1 mg/mL and incubated for additional 4 h, at 37 °C. Finally, the medium was collected and DMSO was used to dissolve the insoluble formazan product. The absorbance of the samples was recorded at 570 nm using a plate reader Mithras 940 (Berthold). The data were corrected for the background and the percentage of viable cells was obtained using the equation:Cell viability = [(A570 of treated cells)/(A570 of untreated cells)] × 100%
(§7) The half-maximal inhibitory concentration (IC50) was determined by fitting the data with a logistical sigmoidal equation using the software Origin 8.1 from Microcal Inc. (Los Angeles, CA, USA).

[16] = system: normal BJ cell (human fibroblast); assay: MTT cell viability assay; assay type: cell-based; settings: any tested concentration (0–25 μg/mL), 24 and 48 h
Protocol: as §4, §5, §6, §7

[17] = Hemolytic activity (adapted ASTM F 756-00); assay type: cell-based; settings: human red blood cells, 4 h at 37 °C, threshold 5% (ASTM F 756-00)
Protocol: The hemolytic activity of the compounds was determined using an adapted protocol of ASTM F 756–00 standard based on hemoglobin release from human red blood cells (hRBCs) resulting after cell lyses. Briefly, the blood samples were collected from healthy volunteers, diluted to a concentration of hemoglobin ~10 mg/mL with phosphate buffer saline (PBS) and then incubated with various concentrations of compounds for 4 h at 37 °C. After 4 h, the cells were centrifuged, the supernatant was collected, transferred into 96-well tissue culture plates and mixed with Drabkin reagent, which converts hemoglobin to cyanmethemoglobin (absorption peak at 540 nm). After 15 min, the absorbance of the samples was read at 570 nm using a plate reader. The obtained data was background corrected and used to calculate the hemolytic index as percentage of the hemoglobin released after the treatment with the tested compounds, relative to control samples. The hRBCs in PBS and distilled water were used as negative and positive controls.

[18] = system: B16 cells; assay: Phalloidin staining and cell imaging (cytoskeleton, nucleus); assay type: cell-based, Mouse; settings: 24 h, 6 μg/mL
Protocol: (§8) Cytoskeleton actin filaments of BJ and B16 cells were stained with phalloidin-FITC (Sigma-Aldrich, USA) according to the manufacturer’s protocol. Briefly, cells were washed with PBS (5 min, 3 times), fixed for 5 min with 3% paraformaldehyde, washed three times with PBS, permeabilized with 0.1% Triton X-100 in PBS for 15 min, washed three times with PBS, stained with 20 μg mL^−1 phalloidin-FITC at room temperature for 1 h and washed again three times with PBS. Cell nucleus was stained with 8 μM of Hoechst 33342 solution for 10 min, washed three times with PBS and finally, mounted and sealed on glass slides with FluorSave™ Reagent (Merck Millipore, Germany). The fluorescence images were acquired using an Andor DSD2 Confocal Unit (Andor, Ireland), mounted on an epifluorescence microscope, Olympus BX-51 (Olympus, Germany), equipped with a 40x and 100x objective and an appropriate DAPI/Hoechst filter cube (excitation filter 390/40 m, dichroic mirror 405 nm and emission filter 452/45 nm) and GFP/FITC filter cube (excitation filter 466/40 nm, dichroic mirror 488 nm and emission filter 525/54 nm).

[19] = system: BJ cells; assay: as above; assay type: cell-based, Human; settings: 24 h, 6 μg/mL
Protocol: as §8

[20] = system: human colon adenocarcinoma (HT 29) cell; design: method as in doi:10.1007/s10973-016-5425-7; settings: cited from earlier work
[21] = Escherichia coli, E. coli 25922, 24 h at 37 °C, read-out: MIC
[22] = Escherichia coli, E. coli 5 ESBL, 24 h at 37 °C, read-out: MIC
[23] = Pseudomonas aeruginosa, P. aeruginosa 27853, 24 h at 37 °C, read-out: MIC
[24] = Pseudomonas aeruginosa, P. aeruginosa 9027 (multi-drug-resistant), 24 h at 37 °C, read-out: MIC
[25] = Staphylococcus aureus, 24 h at 37 °C, read-out: MIC
[26] = Staphylococcus aureus, S. aureus 25923, 24 h at 37 °C, read-out: MIC
[27] = Staphylococcus aureus, S. aureus 6538, 24 h at 37 °C, read-out: MIC
[28] = P. aeruginosa 27853, 24 h at 37 °C
[29] = P. aeruginosa 9027 (multi-drug-resistant), 24 h at 37 °C

Compound	MIC [1, 21] [mM]	MIC [2, 22] [mM]	MIC [3, 23] [mM]	MIC [4, 24] [mM]	MIC [5, 25] [mM]	MIC [6, 26] [mM]	MIC [7, 27] [mM]	MBEC value [8] [mM]	MBEC value [9] [mM]	MBEC value [10] [mM]	MBEC value [11] [mM]	MBEC value [12] [mM]	MBEC value [13] [mM]	MBEC value [14] [mM]	MIC ([1]; E. coli 25922, 24 h at 37 °C) [mM]	MIC ([2]; E. coli 5 ESBL, 24 h at 37 °C) [mM]	MIC [3, 28] [mM]	MIC [4, 29] [mM]	MIC ([5]; 24 h at 37 °C) [mM]	MIC ([6]; S. aureus 25923, 24 h at 37 °C) [mM]	further results
Cc1cc(-c2ccccc2)nc2ncnn12 [pmtp, 5-phenyl-7-methyl-1,2,4-triazolo[1,5-a]pyrimidine]	3 (≈ 631 µg/mL)	3 (≈ 631 µg/mL)	3 (≈ 631 µg/mL)	3 (≈ 631 µg/mL)	6 (≈ 1260 µg/mL)	6 (≈ 1260 µg/mL)	3 (≈ 631 µg/mL)	6.00	3.00	3.00	1.50	6.00	6.00	3.00	–	–	–	–	–	–	Effect on viability of B16 cells [15]: did not affect the viability of the two cell lines; Effect on viability of BJ cells [16]: did not affect the viability of the two cell lines; hemolysis at 4 h, 25 µg/mL [17]: 0.61 ± 0.05%; Cell morphology (cytoskeleton and nucleus) [18]: does not alter the morphology of the cells; Cell morphology (cytoskeleton and nucleus) [19]: does not alter its morphology
{[Cu(bpy)2(μ2OClO3)]·ClO4}n [CuBP]	–	–	–	–	–	–	–	0.54	0.54	1.09	1.09	0.27	0.14	0.14	0.54	0.54	1.09	1.09	0.27	0.27	MIC ([7]; S. aureus 6538, 24 h at 37 °C): 0.27 mM
O.[Cu+2].[O-][Cl+3]([O-])([O-])[O-].[O-][Cl+3]([O-])([O-])[O-].c1cnc2c(c1)ccc1cccnc12.c1cnc2c(c1)ccc1cccnc12 [CuPP, [Cu(phen)2(OH2)](ClO4)2]	–	–	–	–	–	–	–	0.10	0.30	0.50	0.50	0.10	0.03	0.03	0.03	0.03	0.50	0.50	0.12	0.03	MIC ([7]; S. aureus 6538, 24 h at 37 °C): 0.03 mM
c1cnc2c(c1)ccc1cccnc12 [phen, 1,10-phenanthroline]	3.5 (≈ 631 µg/mL)	3.5 (≈ 631 µg/mL)	7 (≈ 1260 µg/mL)	3.5 (≈ 631 µg/mL)	7 (≈ 1260 µg/mL)	7 (≈ 1260 µg/mL)	7 (≈ 1260 µg/mL)	7.00	3.50	7.00	3.50	7.00	7.00	7.00	–	–	–	–	–	–	–
c1ccc(-c2ccccn2)nc1 [bpy, 2,2′-bipyridine]	–	–	–	–	–	–	–	8.00	8.00	8.00	4.00	8.00	4.00	8.00	–	–	–	–	–	–	MIC ([1]; Escherichia coli, 25922, 24 h): 4 mM (≈ 625 µg/mL); MIC ([2]; Escherichia coli, 5ESBL, 24 h): 4 mM (≈ 625 µg/mL); MIC ([3]; Pseudomonas aeruginosa, 27853, 24 h): 8 mM (≈ 1250 µg/mL); MIC ([4]; Pseudomonas aeruginosa, 9027, 24 h): 4 mM (≈ 625 µg/mL); MIC ([5]; Staphylococcus aureus, 24 h): 8 mM (≈ 1250 µg/mL); MIC ([6]; Staphylococcus aureus, 25923, 24 h): 8 mM (≈ 1250 µg/mL); MIC ([7]; Staphylococcus aureus, 6538, 24 h): 8 mM (≈ 1250 µg/mL)
CC(=O)[O-].CC(=O)[O-].Cc1cc(-c2ccccc2)nc2ncnn12.[Cu+2] [[Cu(pmtp)(CH3COO)2]·0.5H2O]	–	–	–	–	–	–	–	–	–	–	–	–	–	–	–	–	–	–	–	–	Antiproliferative effect [20]: dose-dependent antiproliferative effect

Reference: PMC7504215, “Copper(II) Complexes with Mixed Heterocycle Ligands as Promising Antibacterial and Antitumor Species” (Molecules, 2020)
